How the values were obtained:
Test in all cases: relative viability (nuclei count vs DMSO), 5 days (fraction); higher = more cells survive
Ricolinostat + OSI-027 = compound: O=C(CCCCCCNC(=O)c1cnc(N(c2ccccc2)c2ccccc2)nc1)NO [Ricolinostat] + COc1cccc2cc(-c3nc([C@H]4CC[C@H](C(=O)O)CC4)n4ncnc(N)c34)[nH]c12 [OSI-027] (partner 0.5 µM)
In short: (§1)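 Cells from lung cancer lines were seeded into 1536-well plates and, one day later, dosed by pin tool. Treatments were either a single drug or a fixed dose of an anchor drug with five library-drug doses (not always all listed) in √10 steps. After 5 days, nuclei were stained in a one-step fixation (final 0.05% Triton X-100, 1% formaldehyde, 1 ug/ml Hoechst) and counted on 4× images, and relative viability is the treated-to-vehicle nuclei ratio, as the median of duplicate plates.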

TGX 221 + Linsitinib = compound: CC1=CN2C(=O)C=C(N=C2C(=C1)C(C)NC3=CC=CC=C3)N4CCOCC4 [TGX 221] + C[C@]1(O)C[C@@H](c2nc(-c3ccc4ccc(-c5ccccc5)nc4c3)c3c(N)nccn32)C1 [Linsitinib] (partner 1 µM)
In short: as §1

Ricolinostat + AZD7762 = compound: O=C(CCCCCCNC(=O)c1cnc(N(c2ccccc2)c2ccccc2)nc1)NO [Ricolinostat] + NC(=O)Nc1cc(-c2cccc(F)c2)sc1C(=O)N[C@H]1CCCNC1 [AZD7762] (partner 0.2 µM)
In short: as §1

[1] = compound: O=C(CCCCCCNC(=O)c1cnc(N(c2ccccc2)c2ccccc2)nc1)NO [Ricolinostat] + Nc1nc2[nH]cc(CCc3ccc(C(=O)N[C@@H](CCC(=O)O)C(=O)O)cc3)c2c(=O)[nH]1 [Pemetrexed] (partner 0.2 µM)
In short: as §1

| Cell Line | relative viability (Ricolinostat + OSI-027; first compound 0.08 µM) | relative viability (Ricolinostat + OSI-027; first compound 0.253 µM) | relative viability (Ricolinostat + OSI-027; first compound 0.8 µM) | relative viability (Ricolinostat + OSI-027; first compound 2.53 µM) | relative viability (TGX 221 + Linsitinib; first compound 0.08 µM) | relative viability (TGX 221 + Linsitinib; first compound 0.253 µM) | relative viability (TGX 221 + Linsitinib; first compound 0.8 µM) | relative viability (TGX 221 + Linsitinib; first compound 2.53 µM) | relative viability (TGX 221 + Linsitinib; first compound 8 µM) | relative viability (Ricolinostat + AZD7762; first compound 0.08 µM) | relative viability (Ricolinostat + AZD7762; first compound 0.253 µM) | relative viability (Ricolinostat + AZD7762; first compound 0.8 µM) | relative viability (Ricolinostat + AZD7762; first compound 2.53 µM) | relative viability ([1]; first compound 0.08 µM) | relative viability ([1]; first compound 0.253 µM) | relative viability ([1]; first compound 0.8 µM) | relative viability ([1]; first compound 2.53 µM) |
| --- | --- | --- | --- | --- | --- | --- | --- | --- | --- | --- | --- | --- | --- | --- | --- | --- | --- |
| HCC-366 | 0.809 | 1.05 | 0.842 | 0.523 | 0.673 | 0.434 | 0.598 | 0.545 | 0.291 | 0.266 | 0.27 | 0.264 | 0.172 | 0.172 | 0.153 | 0.202 | 0.156 |
| NCI-H1944 | 0.321 | 0.405 | 0.34 | 0.292 | 1.07 | 1.03 | 1.04 | 0.921 | 0.669 | 0.463 | 0.483 | 0.354 | 0.21 | 0.565 | 0.588 | 0.565 | 0.39 |
| NCI-H1651 | 0.607 | 0.651 | 0.603 | 0.618 | 0.851 | 0.67 | 0.723 | 0.726 | 0.533 | 0.429 | 0.485 | 0.367 | 0.302 | 0.463 | 0.571 | 0.55 | 0.552 |
| LCLC-97TM1 | 0.271 | 0.524 | 0.541 | 0.27 | 0.145 | 0.187 | 0.199 | 0.167 | 0.188 | – | 0.378 | 0.265 | 0.34 | 0.152 | 0.157 | 0.137 | 0.157 |
| LC-2-ad | 0.723 | 0.711 | 0.635 | 0.517 | 0.786 | – | 0.731 | 0.668 | 0.595 | 0.842 | 0.883 | 0.82 | 0.745 | 0.32 | 0.272 | 0.28 | 0.269 |
| NCI-H2347 | 0.293 | 0.451 | 0.364 | 0.319 | 0.931 | 0.972 | 0.936 | 0.885 | 0.786 | 0.57 | 0.718 | 0.665 | 0.478 | 0.409 | 0.382 | 0.429 | 0.449 |
| NCI-H2009 | 0.447 | 0.565 | 0.553 | 0.567 | 1.22 | 1.13 | 1.03 | 0.994 | 0.809 | – | – | – | – | 0.977 | 1.02 | 0.965 | 0.92 |
| NCI-H1650 | 0.471 | 0.586 | 0.459 | 0.361 | – | – | – | – | – | – | – | – | – | 0.379 | 0.403 | 0.337 | 0.349 |
| NCI-H650 | 0.405 | 0.585 | 0.503 | 0.374 | 0.732 | 0.885 | 0.779 | 0.772 | 0.713 | 0.706 | 0.993 | 0.849 | 0.579 | 0.643 | 0.912 | 0.861 | 0.734 |
| NCI-H460 | 0.507 | 0.637 | 0.622 | 0.596 | 0.677 | 0.641 | 0.693 | 0.622 | 0.592 | 0.589 | 0.582 | 0.587 | 0.322 | 0.0618 | 0.0585 | 0.0722 | 0.0727 |
| NCI-H1703 | – | – | – | – | 0.678 | 0.522 | 0.48 | 0.487 | 0.636 | – | 0.132 | – | 0.11 | – | – | – | – |
| UMC-11 | 0.406 | 0.517 | 0.487 | 0.235 | 0.966 | 0.979 | 1.13 | 0.987 | 1.04 | – | – | – | – | 0.751 | 0.767 | 0.728 | 0.374 |
| NCI-H2228 | 0.593 | 0.496 | 0.616 | 0.286 | 0.411 | 0.624 | 0.625 | 0.29 | 0.344 | – | – | – | – | 0.311 | 0.31 | 0.285 | 0.345 |
| SW 900 | 0.462 | 0.808 | 0.562 | 0.535 | – | – | – | – | – | 0.632 | 0.534 | 0.513 | 0.369 | 0.496 | 0.488 | 0.491 | 0.441 |
| NCI-H1563 | 0.759 | 0.731 | 0.774 | 0.62 | 1.2 | 1.2 | 0.909 | 0.868 | 0.755 | – | – | – | – | 0.788 | 0.767 | 0.74 | 0.726 |
| Calu-6 | – | – | – | – | 0.909 | 0.913 | 0.935 | 0.855 | 0.84 | – | – | – | – | – | – | – | – |
| NCI-H520 | – | 0.259 | 0.231 | 0.228 | 0.929 | 0.767 | 0.779 | 0.679 | 0.63 | – | – | – | – | – | 0.762 | 0.744 | 0.628 |
| NCI-H1623 | 0.389 | 0.428 | 0.414 | 0.312 | – | – | – | – | – | – | – | – | – | – | – | – | – |
| NCI-H727 | 0.389 | 0.671 | 0.551 | 0.657 | 0.406 | 0.29 | 0.264 | 0.269 | 0.403 | 0.475 | 0.711 | 0.664 | 0.576 | – | – | – | – |
| EBC-1 | – | – | – | – | 0.911 | 0.726 | 0.822 | 0.687 | 0.702 | – | – | – | – | – | – | – | – |
| NCI-H522 | 0.822 | 0.736 | 0.665 | 0.69 | – | – | – | – | – | 0.877 | 0.838 | 0.853 | 0.822 | 0.972 | 1.03 | 1.05 | 0.924 |
| NCI-H1648 | 0.28 | 0.281 | 0.249 | 0.259 | – | – | – | – | – | – | 0.651 | 0.524 | 0.494 | – | 0.596 | 0.629 | 0.521 |
| A549 | – | – | – | – | 0.491 | 0.451 | 0.391 | 0.432 | 0.456 | – | – | – | – | – | – | – | – |
| IA-LM | – | – | – | – | 0.685 | 0.509 | 0.58 | 0.621 | 0.685 | – | – | – | – | – | – | – | – |
| ABC-1 | 0.425 | 0.518 | 0.482 | 0.292 | 0.964 | 0.794 | 0.773 | 0.557 | 0.547 | 0.945 | 0.788 | 0.748 | 0.617 | – | – | – | – |
| ChaGo-K-1 | 0.656 | 0.606 | 0.539 | 0.471 | – | – | – | – | – | 0.842 | 0.901 | 0.862 | 0.798 | 0.253 | 0.255 | 0.262 | 0.27 |
